Like-named read-outs stand apart in the source and are kept apart here.
Key:
[1] = tested on: maximal electroshock-induced seizures; assay: Maximal electroshock-induced seizure (MES) test in mice; assay type: in vivo, mouse; settings: for responders at 300 mg/kg / ED50: Mus musculus, ip; for responders at 300 mg/kg: read-out: percent of animals protected against MES-induced seizures; for ED50: read-out: ED50 ± S.E. (MES test); for PI (TD50/ED50): protective index
Experimental: Additionally, all efforts were made to minimize animal suffering and to use only the number of animals necessary to produce reliable scientific data.
In the initial stage of the study, groups of eight mice were supplied with the compounds (administered intraperitoneally) in a dose of 300 mg/kg and then exposed to electrical impulse at fixed intervals (15, 30, 60, 120 min).
Each mouse was used only once.
Fresh drug solutions were prepared on each day of experimentation and administered at 15, 30, 60 and 120 min. before the initiation of maximal electroconvulsions. Electroconvulsions were produced by a current (0.2 s stimulus duration; 500 V, 50 Hz, fixed current intensity of 25 mA) delivered via ear-clip electrodes by a Rodent Shocker generator (constant-current stimulator Type 221, Hugo Sachs Elektronik, Freiburg, Germany). The criterion for the occurrence of seizure activity was the tonic hind limb extension. The animals were administered with a constant dose of 300 mg/kg of each of the examined compounds and were subjected to MES-induced seizures. […] The animals were administered with different doses of the tested compounds so as to obtain a variable percentage of protection against maximal electroconvulsions, allowing the construction of dose-response relationship lines for each examined compound administered i.p. at various pretreatment times, according to Litchfield and Wilcoxon. Each ED50 value represents the dose of the studied compounds that is required to protect 50% of the animals tested against MES-induced seizures.

GABAA receptors = assay: Radioligand binding assay, [3H]muscimol, rat cerebral cortex; settings: compound 1 × 10^−6 M, [3H]muscimol, rat cerebral cortex;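 further: low percentages indicate weak binding of the compound to the receptor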
Experimental: Binding experiments were conducted in 96-well microplates in a total volume of 200 μL of appropriate buffer. The reaction mixture included 50 μL solution of test compound, 50 μL of radioligand, and […] the tissue suspension. Rat cerebral cortex was used for each receptor. […] Radioligand binding data were analyzed using iterative curve fitting routines (GraphPAD/Prism, Version 3.0, San Diego, CA, USA). Ki values were calculated from the Cheng and Prusoff equation [36].

[2] = tested on: benzodiazepine (BDZ)-binding sites; assay: Radioligand binding assay, [3H]flunitrazepam, rat cerebral cortex; settings: compound 1 × 10^−6 M;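 further: low percentages indicate weak binding of the compound to the site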
Experimental: Binding experiments were conducted in 96-well microplates in a total volume of 200 μL of appropriate buffer. The reaction mixture included 50 μL solution of test compound, 50 μL of radioligand, and […] the tissue suspension. Rat cerebral cortex was used for each receptor. The radioactivity was measured in MicroBeta TriLux 1450-liquid scintillation counter (PerkinElmer, Waltham, MA, USA). Radioligand binding data were analyzed using iterative curve fitting routines (GraphPAD/Prism, Version 3.0, San Diego, CA, USA). Ki values were calculated from the Cheng and Prusoff equation [36].

[3] = 300 mg/kg i.p., pretreatment time 15 min, mice
[4] = 300 mg/kg i.p., pretreatment time 30 min, mice
[5] = 300 mg/kg i.p., pretreatment time 60 min, mice
[6] = 300 mg/kg i.p., pretreatment time 120 min, mice
[7] = 0.25 h, 300 mg/kg i.p., pretreatment time 15 min, mice
[8] = 0.5 h, 300 mg/kg i.p., pretreatment time 30 min, mice
[9] = 1 h, 300 mg/kg i.p., pretreatment time 60 min, mice
[10] = 2 h, 300 mg/kg i.p., pretreatment time 120 min, mice

| SMILES | p/t, number of animals protected against MES-induced seizures / number tested [1, 3] | p/t, number of animals protected against MES-induced seizures / number tested [1, 4] | p/t, number of animals protected against MES-induced seizures / number tested [1, 5] | p/t, number of animals protected against MES-induced seizures / number tested [1, 6] | responders at 300 mg/kg [1, 7] [%] | responders at 300 mg/kg [1, 8] [%] | responders at 300 mg/kg [1, 9] [%] | responders at 300 mg/kg [1, 10] [%] | Percent of Specific Binding, BDZ [2] [%] | melting point [°C] | also measured |
| --- | --- | --- | --- | --- | --- | --- | --- | --- | --- | --- | --- |
| S=c1[nH]nc(-c2cccc(Cl)c2)n1-c1ccccc1Br [Compound 5a, 4-(2-Bromophenyl)-5-(3-chlorophenyl)-2,4-dihydro-3H-1,2,4-triazole-3-thione] | 0/8 | 0/8 | 1/8 | 1/8 | 0 | 0 | 12.5 | 12.5 | 12 |  | Percent of Specific Binding, GABAA (GABAA receptors): 2% |
| S=c1[nH]nc(-c2ccc(Cl)cc2)n1-c1ccc(Cl)cc1Cl [Compound 14a, 5-(4-Chlorophenyl)-4-(2,4-dichlorophenyl)-2,4-dihydro-3H-1,2,4-triazole-3-thione] |  |  |  |  |  |  |  |  |  | 238 to 240 | acute adverse effects at the screening dose ([1]; 300 mg/kg i.p., mice, protective effect in MES could not be established): acute adverse effects |
| S=c1[nH]nc(-c2ccc(Cl)cc2)n1-c1ccc(Br)cc1 [Compound 16a, 4-(4-Bromophenyl)-5-(4-chlorophenyl)-2,4-dihydro-3H-1,2,4-triazole-3-thione] | 5/8 | 7/8 | 8/8 | 8/8 | 62.5 | 87.5 | 100 | 100 | 24 |  | ED50 ([1]; pretreatment time 15 min, mice): 272 ± 21.4 mg/kg; ED50 ([1]; pretreatment time 30 min, mice): 182 ± 44.3 mg/kg; ED50 ([1]; pretreatment time 60 min, mice): 153 ± 23.5 mg/kg; ED50 ([1]; pretreatment time 120 min, mice): 141 ± 25.1 mg/kg; time to peak of the anticonvulsant action ([1]; after i.p. administration, MES, mice): 120 min; PI (TD50/ED50) ([1]; chimney TD50 / MES ED50, pretreatment time 15 min): 1.6; PI (TD50/ED50) ([1]; chimney TD50 / MES ED50, pretreatment time 30 min): 2.6; PI (TD50/ED50) ([1]; chimney TD50 / MES ED50, pretreatment time 60 min): 3.0; PI (TD50/ED50) ([1]; chimney TD50 / MES ED50, pretreatment time 120 min): 2.9; onset of action ([1]; significant protection as early as 15 min after parenteral administration, MES, mice): quick onset of action; Percent of Specific Binding, GABAA (GABAA receptors): 17% |
| CCN(CC)c1ccc(-n2c(-c3ccc(Cl)cc3)n[nH]c2=S)cc1 [Compound 18a, 5-(4-Chlorophenyl)-4-[4-(diethylamino)phenyl]-2,4-dihydro-3H-1,2,4-triazole-3-thione] | 0/8 | 0/8 | 1/8 | 0/8 | 0 | 0 | 12.5 | 0 |  | 264 to 266 |  |
| S=c1n(CN2CCOCC2)nc(-c2ccc(Cl)cc2)n1-c1ccccc1Br [Compound 25a, 4-(2-Bromophenyl)-5-(4-chlorophenyl)-2-(morpholin-4-ylmethyl)-2,4-dihydro-3H-1,2,4-triazole-3-thione] | 0/8 | 0/8 | 0/8 | 0/8 | 0 | 0 | 0 | 0 |  | 180 to 181 |  |
| S=c1n(CN2CCN(c3ccccc3)CC2)nc(-c2ccc(Cl)cc2)n1-c1ccccc1Br [Compound 26a, 4-(2-Bromophenyl)-5-(4-chlorophenyl)-2-[(4-phenylpiperazin-1-yl)methyl]-2,4-dihydro-3H-1,2,4-triazole-3-thione] | 0/8 | 0/8 | 0/8 | 0/8 | 0 | 0 | 0 | 0 |  | 140 to 142 |  |
| Fc1ccc(N2CCN(Cn3nc(-c4ccc(Cl)cc4)n(-c4ccccc4Br)c3=S)CC2)cc1 [Compound 27a, 4-(2-Bromophenyl)-5-(4-chlorophenyl)-2-{[4-(4-fluorophenyl)piperazin-1-yl]methyl}-2,4-dihydro-3H-1,2,4-triazole-3-thione] | 0/8 | 0/8 | 0/8 | 0/8 | 0 | 0 | 0 | 0 |  | 168 to 170 |  |
| S=c1n(CN2CCN(c3ccccc3)CC2)nc(-c2ccc(Cl)cc2)n1-c1ccc(Br)cc1 [Compound 29a, 4-(4-Bromophenyl)-5-(4-chlorophenyl)-2-[(4-phenylpiperazin-1-yl)methyl]-2,4-dihydro-3H-1,2,4-triazole-3-thione] | 0/8 | 0/8 | 0/8 | 0/8 | 0 | 0 | 0 | 0 |  | 178 to 180 |  |
| Fc1ccc(N2CCN(Cn3nc(-c4ccc(Cl)cc4)n(-c4ccc(Br)cc4)c3=S)CC2)cc1 [Compound 30a, 4-(4-Bromophenyl)-5-(4-chlorophenyl)-2-{[4-(4-fluorophenyl)piperazin-1-yl]methyl}-2,4-dihydro-3H-1,2,4-triazole-3-thione] | 0/8 | 0/8 | 0/8 | 0/8 | 0 | 0 | 0 | 0 |  | 156 to 158 |  |
| CN1C(=O)CN=C(c2ccccc2)c2cc(Cl)ccc21 [Diazepam, reference compound] |  |  |  |  |  |  |  |  | 83 |  |  |
| NCCCC(=O)O [GABA, γ-aminobutyric acid] |  |  |  |  |  |  |  |  |  |  | Percent of Specific Binding, GABAA (GABAA receptors): 82% |
| Cc1ccc(-c2nc3ccc(C)cn3c2CC(=O)N(C)C)cc1 [Zolpidem, reference compound] |  |  |  |  |  |  |  |  | 73 |  |  |

Source: article PMC6271529, “Studies on the Anticonvulsant Activity and Influence on GABA-ergic Neurotransmission of 1,2,4-Triazole-3-thione-Based Compounds” (Molecules, 2014)
